This assay deals with T1, trypsin (Bos taurus, UniProt P00760).
T1 sequence (P00760 24-246): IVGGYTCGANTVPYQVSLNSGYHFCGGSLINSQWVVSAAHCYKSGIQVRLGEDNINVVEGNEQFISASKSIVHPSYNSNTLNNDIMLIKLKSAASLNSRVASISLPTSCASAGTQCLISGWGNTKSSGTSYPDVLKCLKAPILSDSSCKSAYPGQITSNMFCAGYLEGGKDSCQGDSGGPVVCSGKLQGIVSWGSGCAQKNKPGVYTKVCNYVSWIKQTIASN
Nature of the assay: trypsin enzyme inhibition activity. It counts as biochemical. The following applies: enzyme inhibition activity of the resynthesized screened compound, FIGS. 4-5. On the procedure:
According to the structural formula, the compound is tested at the end of synthesis.

In general, IC50 refers to the concentration at which inhibition is half-maximal. As for `C[C@H](NC(=O)[C@H](CNC(=O)Cc1ccc2ccccc2c1)NS(=O)(=O)c1ccccc1)C(=O)NCc1ccc(C(=N)N)cc1`, the concentration for half-maximal inhibition (IC50) was determined as 8.1 ± 2.1 nM.

The values above are taken from patent publication US20150321164A1, “METHOD FOR SYNTHESIZING AND SCREENING LEAD COMPOUND AND REAGENT TESTING KIT” (HITGEN LTD., priority 2012, published 2015).
